Results taken from patent publication US20260262643A1, “HERBICIDAL BENZOXAZINES” (FMC CORPORATION, priority 2022, published 2026).

Columns and labels:
blackgrass [1] = assay: Test A preemergence; format: in vivo, Alopecurus myosuroides
Outline: (§1)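 Weeds and crops in loam–sand blend were sprayed preemergence onto soil or postemergence at 2–10 cm (one- to two-leaf stage). Test chemicals were in a non-phytotoxic solvent with surfactant. After 10 days in the greenhouse, injury was rated visually against untreated controls on a 0 (no effect) to 100 (complete control) scale.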

corn [2] = assay: Test A preemergence; format: in vivo, Zea mays
Outline: as §1

foxtail, giant [3] = assay: Test A preemergence; format: in vivo, Setaria faberi
Outline: as §1

goosegrass [4] = assay: Test A preemergence; format: in vivo, Eleusine indica
Outline: as §1

kochia [5] = assay: Test A preemergence; format: in vivo, Bassia scoparia
Outline: as §1

oat, wild [6] = assay: Test A preemergence; format: in vivo, Avena fatua
Outline: as §1

pigweed, palmer [7] = assay: Test A preemergence; format: in vivo, Amaranthus palmeri
Outline: as §1

ragweed [8] = assay: Test A preemergence; format: in vivo, Ambrosia artemisiifolia
Outline: as §1

ryegrass, Italian [9] = assay: Test A preemergence; format: in vivo, Lolium multiflorum
Outline: as §1

soybean [10] = assay: Test A preemergence; format: in vivo, Glycine max
Outline: as §1

wheat [11] = assay: Test A preemergence; format: in vivo, Triticum aestivum
Outline: as §1

blackgrass [12] = assay: Test A postemergence; format: in vivo, Alopecurus myosuroides
Outline: as §1

corn [13] = assay: Test A postemergence; format: in vivo, Zea mays
Outline: as §1

foxtail, giant [14] = assay: Test A postemergence; format: in vivo, Setaria faberi
Outline: as §1

goosegrass [15] = assay: Test A postemergence; format: in vivo, Eleusine indica
Outline: as §1

kochia [16] = assay: Test A postemergence; format: in vivo, Bassia scoparia
Outline: as §1

oat, wild [17] = assay: Test A postemergence; format: in vivo, Avena fatua
Outline: as §1

pigweed, palmer [18] = assay: Test A postemergence; format: in vivo, Amaranthus palmeri
Outline: as §1

ragweed [19] = assay: Test A postemergence; format: in vivo, Ambrosia artemisiifolia
Outline: as §1

ryegrass, Italian [20] = assay: Test A postemergence; format: in vivo, Lolium multiflorum
Outline: as §1

soybean [21] = assay: Test A postemergence; format: in vivo, Glycine max
Outline: as §1

wheat [22] = assay: Test A postemergence; format: in vivo, Triticum aestivum
Outline: as §1

galium = assay: Test A postemergence; format: in vivo, Galium aparine
Outline: as §1

horseweed = assay: Test A postemergence; format: in vivo, Erigeron canadensis
Outline: as §1

barnyardgrass = assay: Test B flooded paddy test; format: in vivo, Echinochloa crus-galli; conditions: 250 g ai/ha, Flood, 13 days, 0 to 100 scale (0 no effect, 100 complete control)
Outline: (§2)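 Application into standing water (3 cm above soil) at the two-leaf stage; flood depth held constant. Evaluation: day 13, visual comparison with controls, 0 = no injury, 100 = complete control.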

ducksalad = assay: Test B flooded paddy test; format: in vivo, Heteranthera limosa; conditions: 250 g ai/ha, Flood, 13 days, 0 to 100 scale (0 no effect, 100 complete control)
Outline: as §2

rice = assay: Test B flooded paddy test; format: in vivo, Oryza sativa; conditions: 250 g ai/ha, Flood, 13 days, 0 to 100 scale (0 no effect, 100 complete control)
Outline: as §2

sedge, umbrella = assay: Test B flooded paddy test; format: in vivo, Cyperus difformis; conditions: 250 g ai/ha, Flood, 13 days, 0 to 100 scale (0 no effect, 100 complete control)
Outline: as §2

[23] = 125 g ai/ha, visual injury after 10 days, 0 to 100 scale, 0 is no effect, 100 is complete control
[24] = 500 g ai/ha, 0 to 100 scale (0 no effect, 100 complete control), 10 days
[25] = 125 g ai/ha, postemergence, 10 days, 0 to 100 scale, 0 no effect, 100 complete control
[26] = 500 g ai/ha, postemergence, 10 days, visual injury, 0 to 100 scale (0 no effect, 100 complete control)
[27] = 125 g ai/ha, postemergence, 10 days, visual injury, 0 to 100 scale (0 no effect, 100 complete control)
[28] = 500 g ai/ha, Postemergence, 0 to 100 scale

SMILES: Cc1ccc(-n2cnc(C3CCC3)n2)cc1C(=O)N1C[C@H](C)Oc2c(C)cccc21 [Compound 97]
- Plant response rating, Blackgrass (blackgrass [1]; [23]): 10
- Plant response rating, Blackgrass (blackgrass [1]; [24]): 40
- Plant response rating, Corn (corn [2]; [23]): 10
- Plant response rating, Corn (corn [2]; [24]): 20
- Plant response rating, Foxtail, Giant (foxtail, giant [3]; [23]): 100
- Plant response rating, Foxtail, Giant (foxtail, giant [3]; [24]): 100
- Plant response rating, Goosegrass (goosegrass [4]; [23]): 100
- Plant response rating, Goosegrass (goosegrass [4]; [24]): 100
- Plant response rating, Kochia (kochia [5]; [23]): 60
- Plant response rating, Kochia (kochia [5]; [24]): 80
- Plant response rating, Oat, Wild (oat, wild [6]; [23]): 90
- Plant response rating, Oat, Wild (oat, wild [6]; [24]): 90
- Plant response rating, Pigweed, Palmer (pigweed, palmer [7]; [23]): 100
- Plant response rating, Pigweed, Palmer (pigweed, palmer [7]; [24]): 100
- Plant response rating, Ragweed (ragweed [8]; [23]): 30
- Plant response rating, Ragweed (ragweed [8]; [24]): 80
- Plant response rating, Ryegrass, Italian (ryegrass, Italian [9]; [23]): 70
- Plant response rating, Ryegrass, Italian (ryegrass, Italian [9]; [24]): 100
- Plant response rating, Soybean (soybean [10]; [23]): 40
- Plant response rating, Soybean (soybean [10]; [24]): 100
- Plant response rating, Wheat (wheat [11]; [23]): 10
- Plant response rating, Wheat (wheat [11]; [24]): 40
- Blackgrass plant response rating (blackgrass [12]; [25]): 30
- Plant response rating, Blackgrass (blackgrass [12]; [26]): 80
- Corn plant response rating (corn [13]; [25]): 30
- Plant response rating, Corn (corn [13]; [26]): 70
- Foxtail, Giant plant response rating (foxtail, giant [14]; [25]): 90
- Plant response rating, Foxtail, Giant (foxtail, giant [14]; [26]): 90
- Goosegrass plant response rating (goosegrass [15]; [25]): 70
- Plant response rating, Goosegrass (goosegrass [15]; [26]): 90
- Kochia plant response rating (kochia [16]; [25]): 70
- Plant response rating, Kochia (kochia [16]; [26]): 100
- Oat, Wild plant response rating (oat, wild [17]; [25]): 30
- Plant response rating, Oat, Wild (oat, wild [17]; [26]): 70
- Pigweed, Palmer plant response rating (pigweed, palmer [18]; [25]): 90
- Plant response rating, Pigweed, Palmer (pigweed, palmer [18]; [26]): 100
- Ragweed plant response rating (ragweed [19]; [25]): 50
- Plant response rating, Ragweed (ragweed [19]; [26]): 80
- Ryegrass, Italian plant response rating (ryegrass, Italian [20]; [25]): 40
- Plant response rating, Ryegrass, Italian (ryegrass, Italian [20]; [26]): 80
- Soybean plant response rating (soybean [21]; [25]): 100
- Plant response rating, Soybean (soybean [21]; [26]): 100
- Wheat plant response rating (wheat [22]; [25]): 20
- Plant response rating, Wheat (wheat [22]; [26]): 70
- Galium plant response rating (galium; [25]): 80
- Plant response rating, Galium (galium; [26]): 100
- Horseweed plant response rating (horseweed; [25]): 30
- Plant response rating, Horseweed (horseweed; [26]): 90
- Plant response rating, Barnyardgrass (barnyardgrass): 0
- Plant response rating, Ducksalad (ducksalad): 0
- Plant response rating, Rice (rice): 0
- Plant response rating, Sedge, Umbrella (sedge, umbrella): 0

SMILES: Cc1ncn(-c2cccc(C(=O)N3C[C@H](C)Oc4c(C)cccc43)c2)n1 [Compound 51]
- Plant response rating, Blackgrass (blackgrass [1]; [23]): 30
- Plant response rating, Blackgrass (blackgrass [1]; [24]): 60
- Plant response rating, Corn (corn [2]; [23]): 20
- Plant response rating, Corn (corn [2]; [24]): 50
- Plant response rating, Foxtail, Giant (foxtail, giant [3]; [23]): 100
- Plant response rating, Foxtail, Giant (foxtail, giant [3]; [24]): 100
- Plant response rating, Goosegrass (goosegrass [4]; [23]): 90
- Plant response rating, Goosegrass (goosegrass [4]; [24]): 100
- Plant response rating, Kochia (kochia [5]; [23]): 70
- Plant response rating, Kochia (kochia [5]; [24]): 90
- Plant response rating, Oat, Wild (oat, wild [6]; [23]): 30
- Plant response rating, Oat, Wild (oat, wild [6]; [24]): 90
- Plant response rating, Pigweed, Palmer (pigweed, palmer [7]; [23]): 0
- Plant response rating, Pigweed, Palmer (pigweed, palmer [7]; [24]): 60
- Plant response rating, Ragweed (ragweed [8]; [23]): 0
- Plant response rating, Ragweed (ragweed [8]; [24]): 0
- Plant response rating, Ryegrass, Italian (ryegrass, Italian [9]; [23]): 90
- Plant response rating, Ryegrass, Italian (ryegrass, Italian [9]; [24]): 100
- Plant response rating, Soybean (soybean [10]; [23]): 90
- Plant response rating, Soybean (soybean [10]; [24]): 100
- Plant response rating, Wheat (wheat [11]; [23]): 20
- Plant response rating, Wheat (wheat [11]; [24]): 60
- Plant response rating, Blackgrass (blackgrass [12]; [27]): 40
- Plant response rating, Blackgrass (blackgrass [12]; [28]): 50
- Plant response rating, Corn (corn [13]; [27]): 30
- Plant response rating, Corn (corn [13]; [28]): 50
- Plant response rating, Foxtail, Giant (foxtail, giant [14]; [27]): 90
- Plant response rating, Foxtail, Giant (foxtail, giant [14]; [28]): 90
- Plant response rating, Goosegrass (goosegrass [15]; [27]): 40
- Plant response rating, Goosegrass (goosegrass [15]; [28]): 80
- Plant response rating, Kochia (kochia [16]; [27]): 60
- Plant response rating, Kochia (kochia [16]; [28]): 70
- Plant response rating, Oat, Wild (oat, wild [17]; [27]): 30
- Plant response rating, Oat, Wild (oat, wild [17]; [28]): 70
- Plant response rating, Pigweed, Palmer (pigweed, palmer [18]; [27]): 20
- Plant response rating, Pigweed, Palmer (pigweed, palmer [18]; [28]): 50
- Plant response rating, Ragweed (ragweed [19]; [27]): 0
- Plant response rating, Ragweed (ragweed [19]; [28]): 0
- Plant response rating, Ryegrass, Italian (ryegrass, Italian [20]; [27]): 70
- Plant response rating, Ryegrass, Italian (ryegrass, Italian [20]; [28]): 90
- Plant response rating, Soybean (soybean [21]; [27]): 100
- Plant response rating, Soybean (soybean [21]; [28]): 100
- Plant response rating, Wheat (wheat [22]; [27]): 30
- Plant response rating, Wheat (wheat [22]; [28]): 80
- Plant response rating, Galium (galium; [27]): 80
- Plant response rating, Galium (galium; [28]): 100
- Plant response rating, Horseweed (horseweed; [27]): 0
- Plant response rating, Horseweed (horseweed; [28]): 20
- Plant response rating, Barnyardgrass (barnyardgrass): 25
- Plant response rating, Ducksalad (ducksalad): 65
- Plant response rating, Rice (rice): 15
- Plant response rating, Sedge, Umbrella (sedge, umbrella): 80

SMILES: O=C(c1cccc(-n2cncn2)c1)N1CC(C(F)(F)F)Oc2c(Cl)cccc21 (centres unmarked) [Compound 59]
- Plant response rating, Blackgrass (blackgrass [1]; [23]): 0
- Plant response rating, Blackgrass (blackgrass [1]; [24]): 60
- Plant response rating, Corn (corn [2]; [24]): 20
- Plant response rating, Foxtail, Giant (foxtail, giant [3]; [23]): 90
- Plant response rating, Foxtail, Giant (foxtail, giant [3]; [24]): 100
- Plant response rating, Goosegrass (goosegrass [4]; [23]): 90
- Plant response rating, Goosegrass (goosegrass [4]; [24]): 100
- Plant response rating, Kochia (kochia [5]; [23]): 0
- Plant response rating, Kochia (kochia [5]; [24]): 90
- Plant response rating, Oat, Wild (oat, wild [6]; [23]): 20
- Plant response rating, Oat, Wild (oat, wild [6]; [24]): 90
- Plant response rating, Pigweed, Palmer (pigweed, palmer [7]; [23]): 10
- Plant response rating, Pigweed, Palmer (pigweed, palmer [7]; [24]): 100
- Plant response rating, Ragweed (ragweed [8]; [23]): 0
- Plant response rating, Ragweed (ragweed [8]; [24]): 0
- Plant response rating, Ryegrass, Italian (ryegrass, Italian [9]; [23]): 90
- Plant response rating, Ryegrass, Italian (ryegrass, Italian [9]; [24]): 100
- Plant response rating, Soybean (soybean [10]; [24]): 90
- Plant response rating, Wheat (wheat [11]; [23]): 0
- Plant response rating, Wheat (wheat [11]; [24]): 50
- Plant response rating, Blackgrass (blackgrass [12]; [27]): 20
- Plant response rating, Blackgrass (blackgrass [12]; [28]): 80
- Plant response rating, Corn (corn [13]; [28]): 20
- Plant response rating, Foxtail, Giant (foxtail, giant [14]; [27]): 40
- Plant response rating, Foxtail, Giant (foxtail, giant [14]; [28]): 90
- Plant response rating, Goosegrass (goosegrass [15]; [27]): 20
- Plant response rating, Goosegrass (goosegrass [15]; [28]): 50
- Plant response rating, Kochia (kochia [16]; [27]): 10
- Plant response rating, Kochia (kochia [16]; [28]): 70
- Plant response rating, Oat, Wild (oat, wild [17]; [27]): 10
- Plant response rating, Oat, Wild (oat, wild [17]; [28]): 50
- Plant response rating, Pigweed, Palmer (pigweed, palmer [18]; [27]): 20
- Plant response rating, Pigweed, Palmer (pigweed, palmer [18]; [28]): 50
- Plant response rating, Ragweed (ragweed [19]; [27]): 40
- Plant response rating, Ragweed (ragweed [19]; [28]): 40
- Plant response rating, Ryegrass, Italian (ryegrass, Italian [20]; [27]): 0
- Plant response rating, Ryegrass, Italian (ryegrass, Italian [20]; [28]): 60
- Plant response rating, Soybean (soybean [21]; [28]): 100
- Plant response rating, Wheat (wheat [22]; [27]): 10
- Plant response rating, Wheat (wheat [22]; [28]): 40
- Plant response rating, Galium (galium; [27]): 90
- Plant response rating, Galium (galium; [28]): 100
- Plant response rating, Horseweed (horseweed; [27]): 0
- Plant response rating, Horseweed (horseweed; [28]): 0
- Plant response rating, Barnyardgrass (barnyardgrass): 0
- Plant response rating, Ducksalad (ducksalad): 0
- Plant response rating, Rice (rice): 0
- Plant response rating, Sedge, Umbrella (sedge, umbrella): 0
